According to article PMC10060639, “Prediction and bioactivity of small-molecule antimicrobial peptides from Protaetia brevitarsis Lewis larvae” (Frontiers in Microbiology, 2023):
Where “and” joins values, the source holds several entries; their conditions need not be identical. Equal values may be shown once.

What was measured:
[1] = system: E. coli; experiment: agar punch method, inhibition circle; type: cell-based, Escherichia coli; conditions: 6 mm hole, 55 μL of 1 mg/mL, NA, 37°C, 16–18 h, mean ± SD, three replicates, + control given per plate group
Method: (§1) Staphylococcus aureus CMCC(B) 26003, B. thuringiensis, E. coli, and P. aeruginosa CMCC(B)10104 were cultured in NA medium and C. albicans CMCC(F) 98001 was cultured in SDA medium. They were incubated in a constant-temperature (bacteria: 37°C; fungi: 28°C) incubator for 16–20 h. Thereafter, single colonies were picked and incubated in 50 mL MHB at 160 rpm/min at the optimal growth temperature (bacteria: 37°C; fungi: 28°C). Microbial suspensions of 1 × 10^6 CFU/mL were then prepared ([Chen et al., 2016]).
(§2) 100 μL of 1 × 10^6 CFU/mL microbial suspension (E. coli, P. aeruginosa CMCC(B)10104, B. thuringiensis, S. aureus CMCC(B) 26003, or C. albicans CMCC(F) 98001) was evenly applied to dishes containing 20 mL NA (bacteria) or SDA (fungi). After the microbial solution solidified, six holes per dish were punched with a sterile pipette tip of 6 mm in diameter, with each hole spaced >20 mm apart and > 10 mm apart from the edge of the dish. […] Next, 55 μL of 1 mg/mL control/treatment was added to each hole and incubated in a constant-temperature (bacteria: 37°C; fungi: 28°C) incubator for 16–18 h ([Chen et al., 2016]; [Gong et al., 2022]), with three replicates for each treatment group. The diameter of the inhibition circle was measured using ImageJ software (National Institutes of Health, United States) in order to preliminarily determine whether the candidate peptides had inhibitory activity.

[2] = system: P. aeruginosa CMCC(B)10104; experiment: agar punch method, inhibition circle; type: cell-based, Pseudomonas aeruginosa; conditions: 6 mm hole, 55 μL of 1 mg/mL, NA, 37°C, 16–18 h, mean ± SD, three replicates, + control given per plate group, listed as +
Method: as §1, §2

[3] = system: B. thuringiensis; experiment: agar punch method, inhibition circle; type: cell-based, Bacillus thuringiensis; conditions: 6 mm hole, 55 μL of 1 mg/mL, NA, 37°C (Fig. S3C: 30°C), 16–18 h, mean ± SD, three replicates, + control given per plate group
Method: as §1, §2

[4] = system: S. aureus CMCC(B) 26003; experiment: agar punch method, inhibition circle; type: cell-based, Staphylococcus aureus; conditions: 6 mm hole, 55 μL of 1 mg/mL, NA, 37°C, 16–18 h, mean ± SD, three replicates, + control given per plate group
Method: as §1, §2

[5] = system: C. albicans CMCC(F) 98001; experiment: agar punch method, inhibition circle; type: cell-based, Candida albicans; conditions: 6 mm hole, 55 μL of 1 mg/mL, SDA, 28°C, 16–18 h, mean ± SD, three replicates, + control given per plate group
Method: as §1, §2

[6] = system: E. coli; experiment: dynamic antimicrobial analysis (OD600 growth over 10 h); type: cell-based, Escherichia coli; conditions: 1/4× MIC, OD600 every hour for 10 h, 37°C, n = 3
Method: (§3) Therefore, the follow-up experiments involved these two bacteria, along with the three AMPs with the best antimicrobial effects (FD10, FD12, and FD15). The dynamic antimicrobial effects were analyzed by measuring the effects of the AMPs on bacterial growth over 10 h. First, 100 μL microbial solution (1.0 × 10^6 CFU/mL) was added to the wells of a 96-well culture plate, and then 100 μL AMP (at 1× and 1/4× MIC) was added and the mixtures were cultured at 37°C ([Mishra et al., 2013]; [Memariani et al., 2016]). 100 μL MHB with 100 μL microbial solution was used as the control group. The optical density at 600 nm (OD600) was measured every hour for 10 h using a microplate reader ([Hou et al., 2007]). The experiment was conducted in triplicate.

[7] = system: S. aureus CMCC(B) 26003; experiment: as above; type: cell-based, Staphylococcus aureus; conditions: 1/4× MIC, OD600 every hour for 10 h, 37°C, n = 3
Method: as §3

[8] = system: mouse RAW 264.7 macrophages; experiment: cytotoxicity, MTT assay; type: cell-based; conditions: at 256 μg/mL, 24 h incubation, absorbance 570 nm, n = 3
Method: Followed the removing of the MTT, dimethyl sulfoxide (DMSO) (150 μL/well) was added and the absorbance was measured at 570 nm. Untreated cells were used as a control. […] The cytotoxicity detection was repeated in triplicate.

Q: Which “Inhibition circle diameter (mm) E. coli” value [1] does the source give for CC1(C)S[C@@H]2[C@H](NC(=O)[C@H](N)c3ccccc3)C(=O)N2[C@H]1C(=O)O [ampicillin, reference compound] here?
A: 29.37 mm

Q: And the “Inhibition circle diameter (mm) E. coli” value ([1]; listed as +)?
A: 27.03 ± 0.47 mm and 27.84 ± 0.30 mm and 30.50 ± 0.21 mm and 29.37 ± 0.31 mm

Q: And the “Inhibition circle diameter (mm) P. aeruginosa CMCC(B)10104” value [2]?
A: 15.10 ± 0.43 mm and 16.52 ± 0.55 mm and 16.99 ± 0.39 mm and 14.48 ± 0.29 mm

Q: And the “Inhibition circle diameter (mm) B. thuringiensis” value [3]?
A: 17.95 ± 0.36 mm and 13.99 ± 0.61 mm and 17.47 ± 0.19 mm and 15.97 ± 0.49 mm

Q: And the “Inhibition circle diameter (mm) S. aureus CMCC(B) 26003” value [4]?
A: 19.98 mm

Q: What about the “Inhibition circle diameter (mm) S. aureus CMCC(B) 26003” value ([4]; listed as +) of the same molecule?
A: 14.35 ± 0.49 mm and 15.58 ± 0.58 mm and 16.02 ± 0.34 mm and 19.98 ± 0.42 mm

Q: What about the “Inhibition circle diameter (mm) C. albicans CMCC(F) 98001” value [5] of the same molecule?
A: 16.16 ± 0.51 mm and 17.74 ± 0.47 mm and 17.80 ± 0.25 mm and 19.69 ± 0.53 mm

Q: What about the “time after which E. coli growth began” value [6] of the same molecule?
A: > 1 h

Q: What about the “time after which S. aureus CMCC(B) 26003 growth began” value [7] of the same molecule?
A: around 2 h

Q: And the “survival rate of mouse RAW 264.7 macrophages” value [8]?
A: 84.90%
